Entries after “also recorded” stand apart in the source; their conditions may differ. No end group written: not given here.
Tests used:
WWP2 (SEQ ID NO:24) [1] = target: T1, WWP2 (SEQ ID NO:24) (Homo sapiens, UniProt O00308); assay: Fluorescence polarization assay (FITC/TAMRA) for disruption of WWP2 binding to PY-motif peptide probe; conditions: SEQ ID NO: 17 probe with FITC or TAMRA label; read-out: [compound] to achieve 50% change in fluorescence polarization in FP Assay
T1 construct: poly-His (pET28b leader with thrombin site) (N, cleaved yes); made in house; host or cells: E. coli BL21 DE3
Procedure: (§1) Screens for compounds that disrupt the binding of the FTIC-peptide and WWP2 (SEQ ID NO:24) were carried out in 384-well plate format with 25 ml assay volume at ˜0.5 mM WWP2. Non-binding solid black plates (Corning Costar 3575) were used. The assay buffer contained 20 mM Tris and 150 mM NaCl at pH 7.9. FP was measured on either a Biotek Synergy4 or an Analyst GT plate reader. Data analysis was performed using the in-house software excelHTS. […] Each assay plate included 16 negative control wells containing protein-probe mix but no compounds and 16 wells containing only probe.

[2] = target: T2, WWP2 polypeptide (SEQ ID NO:24) (Homo sapiens, UniProt O00308); assay: Fluorescence polarization WWP2 protein dose-response, binding of PY-motif peptide probes
T2 construct: poly-His (pET28b leader with thrombin site) (N, cleaved yes); made in house; host or cells: E. coli BL21 DE3
Procedure: as §1, with “Screens for compounds that disrupt the binding of the FTIC-peptide and WWP2 (SEQ ID NO:24) were carried out in 384-well plate format with 25 ml assay volume at ˜0.5 mM WWP2.” left out

WWP2 (SEQ ID NO:24) [3] = target: T1, WWP2 (SEQ ID NO:24); assay: Epic label-free binding assay of compounds to immobilized WWP2
Procedure: Another preferred embodiment of an in vitro screening method is depicted in FIG. 3. In this method, the ability of the candidate compound 204 to directly interact with the cellular ESCRT-linked component protein (for example, Nedd4 family of polypeptides [for example, WWP1 (SEQ ID NO:29), WWP2 (SEQ ID NO:24), Nedd4 L, among others]) or TGS101 is evaluated. According to this embodiment, a cellular ESCRT component protein 202 is preferably immobilized to a substrate 201 (for example, a microtiter plate) via a linking group 203 (for example, an amine group). The substrate preferably includes an optional reference area that provides a control to prevent non-specific interactions with non-mobilized ESCRT complex protein 202 with substrate 201. The substrate 201 is washed and irradiated with broadband light so that a baseline refractive index is measured. Test compound 204 is added to the system to permit its binding to the immobilized ESCRT component protein 202 to form a resultant associative complex 205. The substrate 201 is irradiated with broadband light again to detect a change in the wavelength of the reflected light.
High sensitivity biochemical plates (PerkinElmer Cat. No. 6057468) are used in WWP2 (SEQ ID NO:24) binding assay to maximize protein immobilization. […] Because compound stocks are in DMSO that affects the Epic label-free readout, the compound plates were prepared by Echo550 acoustic dispenser to keep DMSO content balanced for all wells. […]
The binding of compounds to WWP2 (SEQ ID NO:24) was measured on the EnSpire label-free plate reader. After 25 minutes of thermal equilibration, a baseline reading was taken on the label-free plates with protein immobilized in assay buffer. […] The final reading was taken after 25 min of thermal equilibration and over a period of 60 minutes. The label-free responses were measured as shifts in reflected wavelength and were expressed in picometers (pm). Results were analyzed using the EnSpire label-free user interface software. […]

HSV-1 (strain F) = assay: HSV-1 virus production and release from infected Vero cells, plaque assay; assay type: cell-based; conditions: FIG. 8A
Procedure: Vero cells were inoculated with HSV-1 (strain F) at a multiplicity of infection (MOI) of 0.01 for 2 hr. The cells were washed and treated with 0.10 M sodium citrate buffer to inactivate viruses on the outside of the cells (for example, in the culture medium). The culture medium was replaced with fresh culture medium containing no inhibitor compound or different concentrations (40 μM or 80 μM) of inhibitor compounds F15 or N16 (candidate PTAP motif inhibitors against the TSG101 peptide [SEQ ID NO:33]) for 48 hr. The supernatants (culture medium) and total cells (culture medium and cells) were collected for determining infectious virus titer. The virus titers were determined by standard plaque assay on Vero cells.
Vero cells were grown in DMEM supplemented with 10% FBS. Viral infections were performed in DMEM supplemented with 1% heat-inactivated FBS. Vero cells were inoculated HSV-1 (strain F) at indicated concentrations, after 2 h, the cells were washed and treated with 0.1 M sodium citrate buffer (pH 3.0) for 1 min to inactivate unpenetrated viruses, washed again and incubated with fresh medium containing 1% heat-inactivated FBS. […] Then virus titers were determined by standard plaque assay on Vero cells.

Vero cells = assay: MTS cytotoxicity assay; conditions: 0 μM to 100 μM, uninfected cells, absorbance at 490 nm, FIG. 8B; listed as N16
Procedure: The cytotoxicity of the compounds was determined by a commercially available assay (Celltiter 96® AQueous One Solution cell proliferation assay reagent; Promega, Madison, Wis.), as described previously (Akkarawongsa et al., 2006). The CellTiter 96® AQueous One Solution Cell Proliferation Assay is a colorimetric method for determining the number of viable cells in proliferation, cytotoxicity or chemosensitivity assays. The CellTiter 96® AQueous One Solution Reagent contains a tetrazolium compound [3-(4,5-dimethylthiazol-2-yl)-5-(3-carboxymethoxyphenyl)-2-(4-sulfophenyl)-2H-tetrazolium, inner salt; MTS] and an electron coupling reagent (phenazine ethosulfate; PES). PES has enhanced chemical stability, which allows it to be combined with MTS to form a stable solution. […] Assays are performed by adding a small amount of the CellTiter 96® AQueous One Solution Reagent directly to culture wells, incubating for 1-4 hours and then recording absorbance at 490 nm with a 96-well plate reader. The quantity of formazan product as measured by the amount of 490 nm absorbance is directly proportional to the number of living cells in culture.
Briefly, Vero cells (1.5×10^4 cells/well) were seeded in a 96-well plate, and the plate was incubated for 24 h at 37° C. […] The plate was then incubated for 2 h at 37° C., and the absorbance at 490 nm was determined with a 96-well plate reader (Perkin Elmer).

TSG101 (SEQ ID NO:33) = target: T3, TSG101 (SEQ ID NO:33) (Homo sapiens, UniProt Q99816); assay: Fluorescence-based thermal shift (FTS) assay; assay type: binding; conditions: FIG. 7
T3 construct: polyhistidine leader with thrombin cleavage site (pET28b) (N); TEV cleavage site (N); made in house
T3 sequence (Q99816 with tags, fused parts or gaps): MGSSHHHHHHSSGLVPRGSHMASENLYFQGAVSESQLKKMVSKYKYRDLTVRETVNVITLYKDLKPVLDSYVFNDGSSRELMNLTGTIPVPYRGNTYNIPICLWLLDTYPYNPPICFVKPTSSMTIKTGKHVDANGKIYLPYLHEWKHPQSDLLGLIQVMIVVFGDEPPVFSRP
Procedure: The fluorescence-based thermal shift assay is based on the observation that a protein unfolds upon heating, exposing the hydrophobic residues within its tertiary structure. The unfolding temperature (Tm) is determined by the protein's primary sequence and solution environment. The FTS assay uses a fluorescent dye sensitive to a hydrophobic environment to probe protein stability and its modulation by small molecule ligands. The dye has a low fluorescence quantum yield when in a polar environment. […] J Biomol Screen 6: 429-440; Lo M C, Aulabaugh A, Jin G, Cowling R, Bard J, et al. (2004) Evaluation of fluorescence-based thermal shift assays for hit identification in drug discovery. […]
The NU-HTA has developed a robotic pipeline for small molecule protein ligand screening by FTS. See Luan C H, Light S H, Dunne S F, Anderson W F. Ligand screening using Fluorescence Thermal Shift Analysis (FTS). […] The pipeline uses an Echo550 acoustic transfer robot (Labcyte, CA) for compound addition and the Mosquito robot (TTP LabTechnologies, UK) for protein dispensing followed by thermal scanning coupled with fluorescence detection which is performed on a real-time PCR machine CFX384 (Bio-Rad Laboratories). […]

T1 sequence (O00308 with tags, fused parts or gaps): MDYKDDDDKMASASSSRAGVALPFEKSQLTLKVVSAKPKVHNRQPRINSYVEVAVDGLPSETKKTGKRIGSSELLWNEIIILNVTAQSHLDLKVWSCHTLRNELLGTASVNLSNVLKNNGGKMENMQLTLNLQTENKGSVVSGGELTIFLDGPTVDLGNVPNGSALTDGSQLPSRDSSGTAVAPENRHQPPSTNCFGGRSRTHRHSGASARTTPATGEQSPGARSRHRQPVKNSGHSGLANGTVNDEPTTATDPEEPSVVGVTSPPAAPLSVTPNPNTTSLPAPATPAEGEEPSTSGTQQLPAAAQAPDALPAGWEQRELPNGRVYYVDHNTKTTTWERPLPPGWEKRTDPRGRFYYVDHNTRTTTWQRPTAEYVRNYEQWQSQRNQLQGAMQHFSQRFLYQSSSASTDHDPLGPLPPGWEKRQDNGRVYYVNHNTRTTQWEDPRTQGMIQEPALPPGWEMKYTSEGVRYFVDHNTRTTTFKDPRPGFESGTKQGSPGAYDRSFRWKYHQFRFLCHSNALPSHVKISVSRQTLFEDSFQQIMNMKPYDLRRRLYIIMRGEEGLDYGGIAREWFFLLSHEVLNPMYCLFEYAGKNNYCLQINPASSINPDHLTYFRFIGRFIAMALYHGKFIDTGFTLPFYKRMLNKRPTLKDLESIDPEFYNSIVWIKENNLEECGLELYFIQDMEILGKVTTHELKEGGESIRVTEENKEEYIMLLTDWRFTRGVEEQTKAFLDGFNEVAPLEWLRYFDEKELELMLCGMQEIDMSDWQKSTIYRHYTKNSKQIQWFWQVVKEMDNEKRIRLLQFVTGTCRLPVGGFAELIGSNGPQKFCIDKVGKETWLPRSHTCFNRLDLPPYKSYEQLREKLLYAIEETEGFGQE
T2 sequence (O00308 with tags, fused parts or gaps): as above

Question: `O=C1c2ccccc2C(=O)c2c(NC3CCCCC3)ccc(Nc3ccc(S(=O)(=O)O)cc3)c21` [NSC128437] was tested. Which IC50 (WWP2 (SEQ ID NO:24) [1]) did it give?
Answer: The IC50 was 3 µM.

Question: Which Kd [2] does the source give for “ATASAPPPYVGSGGGATASAPPPYVGSGGGATASAPPPYVGSGGGRRR [SEQ ID NO:17]” here?
Answer: Its Kd is 0.2 µM.

Question: For `Cc1nn(-c2ccc(S(=O)(=O)[O-])cc2)c([O-])c1N=Nc1ccc(-c2ccc(N=Nc3ccc4c(S(=O)(=O)[O-])cc(S(=O)(=O)[O-])c(N)c4c3[O-])c([O-])c2)cc1[O-].[Cu+2].[Cu+2].[H+].[H+].[H+]` [NSC306711], which IC50 (WWP2 (SEQ ID NO:24) [1]) is on record?
Answer: The IC50 was 1 µM.

Question: With `CC1=C(O)C(=O)C=C2C1=CC=C1[C@@]2(C)CC[C@@]2(C)[C@@H]3C[C@](C)(C(=O)O)CC[C@]3(C)CC[C@]12C` [Celastrol, 3-Hydroxy-9β,13α-dimethyl-2-oxo-24,25,26-trinoroleana-1(10),3,5,7-tetraen-29-oic acid] as the compound, how does the Kd (WWP2 (SEQ ID NO:24) [3]) read?
Answer: The Kd was 18.5 µM.

Question: With `CCC(/C=C1\Sc2cc(Br)ccc2N1CC)=C\c1sc2cc(Br)ccc2[n+]1CC` [CD23-G07] as the compound, how does the IC50 (WWP2 (SEQ ID NO:24) [1]) read?
Answer: Its IC50 is 20 to 30 µM.

Question: `COc1ccc2[nH]c([S+]([O-])Cc3ncc(C)c(OC)c3C)nc2n1` (racemic) [Tenatoprazole, (RS)-3-Methoxy-8-[(4-methoxy-3,5-dimethyl-pyridin-2-yl)methylsulfinyl]-2,7,9-triazabicyclo[4.3.0]nona-2,4,8,10-tetraene] was tested. Which “HSV-1 virion release from cells (in words)” value (HSV-1 (strain F)) did it give?
Answer: Its value is “inhibit HSV-1 virion release from cells”.

Question: And the “Cytotoxic effects on Vero cells” value (Vero cells)?
Answer: Its value is “Neither inhibitor compound was cytotoxic; also recorded: not toxic; also recorded: did not display cytotoxic effects”.

Question: What about the “Thermal shift in protein unfolding (Tm) of TSG101” value (TSG101 (SEQ ID NO:33)) of the same compound?
Answer: Its value is “lower Tm”.

Question: Which “HSV-1 virion release from cells (in words)” value (HSV-1 (strain F)) does the source give for `COc1ccc2[n-]c([S@@+]([O-])Cc3ncc(C)c(OC)c3C)nc2c1.[K+]` [Esomeprazole potassium, 5-methoxy-2-[(R)-[(4-methoxy-3,5-dimethylpyridin-2-yl)methane]sulfinyl]-1H-1,3-benzodiazole, potassium] here?
Answer: Its value is “inhibit HSV-1 virion release from cells”.
